# Source: US20260226041A1 (ARIGENX THERAPEUTICS CO., LTD., priority 2023, published 2026)
# Legend:
# rat AHR = molecular target: T1, rat AHR (Rattus norvegicus, UniProt P41738); assay: Rat AHR agonist luciferase assay (6x XRE Nano-luc reporter in H-4-II-E cells); assay type: cell-based; details: AHR activation, rat hepatoma H-4-II-E reporter cells, incubated 4 to 24 hours; read-out: H4IIE EC50
# T1 construct: The reporter gene was introduced into a genome of rat hepatoma H-4-II-E cells via lentiviral infection; endogenous in cells; host or cells: H-4-II-E (rat hepatoma) with a lentivirally integrated 6x XRE Nano-luc reporter
# T1 sequence (P41738 10-853): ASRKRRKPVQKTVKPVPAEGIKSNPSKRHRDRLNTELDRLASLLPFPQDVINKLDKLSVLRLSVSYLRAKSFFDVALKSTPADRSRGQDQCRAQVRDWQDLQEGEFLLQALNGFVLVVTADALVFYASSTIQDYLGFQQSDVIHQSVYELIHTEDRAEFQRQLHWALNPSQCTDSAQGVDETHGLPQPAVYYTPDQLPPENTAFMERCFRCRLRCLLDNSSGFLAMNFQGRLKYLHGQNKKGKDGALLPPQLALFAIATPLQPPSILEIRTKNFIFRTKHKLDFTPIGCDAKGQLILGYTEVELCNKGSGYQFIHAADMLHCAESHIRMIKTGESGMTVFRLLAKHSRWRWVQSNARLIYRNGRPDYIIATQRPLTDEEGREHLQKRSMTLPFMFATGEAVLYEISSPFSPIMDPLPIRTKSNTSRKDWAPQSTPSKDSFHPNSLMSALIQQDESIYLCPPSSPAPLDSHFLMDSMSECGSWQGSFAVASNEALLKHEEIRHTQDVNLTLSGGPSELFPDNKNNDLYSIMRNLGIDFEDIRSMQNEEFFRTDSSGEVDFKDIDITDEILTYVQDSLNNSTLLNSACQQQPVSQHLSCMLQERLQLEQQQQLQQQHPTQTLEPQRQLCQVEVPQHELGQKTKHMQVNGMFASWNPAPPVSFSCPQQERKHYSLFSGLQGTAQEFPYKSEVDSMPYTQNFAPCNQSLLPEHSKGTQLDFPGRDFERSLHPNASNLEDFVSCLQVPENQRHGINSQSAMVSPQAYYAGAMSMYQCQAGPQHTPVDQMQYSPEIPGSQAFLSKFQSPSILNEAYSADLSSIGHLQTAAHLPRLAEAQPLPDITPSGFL
# From the text: A lentivirus containing the reporter gene was generated by co-transfecting the transfer plasmid with packaging plasmids into 293T cells using conventional transfection methods in the art, followed by purification. The reporter gene was introduced into a genome of rat hepatoma H-4-II-E cells via lentiviral infection, and cells stably expressing the reporter gene were selected with puromycin for the rat AHR agonist luciferase assay.
# mouse AHR = mouse AHR (Mus musculus, UniProt P30561); assay: Mouse AHR agonist luciferase assay (6x XRE Nano-luc reporter in Hepa1-6 cells);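 note: stable Hepa1-6 reporter line, 4–24 h exposure, 11-point serial dilution, Nano-Glo luminescence as fold over medium-only baseline, EC50 from four-parameter fit of activation fold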
# mouse AHR, sequence (P30561 10-805 limits assumed): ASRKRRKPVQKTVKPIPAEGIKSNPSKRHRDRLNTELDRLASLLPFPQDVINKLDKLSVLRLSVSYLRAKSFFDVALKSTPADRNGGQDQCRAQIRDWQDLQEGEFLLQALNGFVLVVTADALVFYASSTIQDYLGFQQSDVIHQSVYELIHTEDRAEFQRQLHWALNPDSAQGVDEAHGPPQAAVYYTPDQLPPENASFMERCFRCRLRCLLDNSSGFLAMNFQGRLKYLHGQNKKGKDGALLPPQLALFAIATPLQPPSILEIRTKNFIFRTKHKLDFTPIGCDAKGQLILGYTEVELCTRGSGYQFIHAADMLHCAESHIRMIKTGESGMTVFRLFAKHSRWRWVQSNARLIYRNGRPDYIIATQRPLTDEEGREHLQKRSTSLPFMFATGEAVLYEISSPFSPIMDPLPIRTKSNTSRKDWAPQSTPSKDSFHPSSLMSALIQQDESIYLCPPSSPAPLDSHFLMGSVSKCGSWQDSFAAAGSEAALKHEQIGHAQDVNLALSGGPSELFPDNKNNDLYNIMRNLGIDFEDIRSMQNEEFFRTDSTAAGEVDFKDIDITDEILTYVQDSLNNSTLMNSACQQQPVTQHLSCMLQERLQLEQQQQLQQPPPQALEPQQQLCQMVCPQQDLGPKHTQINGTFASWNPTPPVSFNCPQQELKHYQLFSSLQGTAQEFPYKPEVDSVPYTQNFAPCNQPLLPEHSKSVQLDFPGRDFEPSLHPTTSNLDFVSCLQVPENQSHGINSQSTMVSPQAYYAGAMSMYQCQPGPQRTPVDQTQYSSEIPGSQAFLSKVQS
# mouse AHR, sequence (P53762 whole entry partner): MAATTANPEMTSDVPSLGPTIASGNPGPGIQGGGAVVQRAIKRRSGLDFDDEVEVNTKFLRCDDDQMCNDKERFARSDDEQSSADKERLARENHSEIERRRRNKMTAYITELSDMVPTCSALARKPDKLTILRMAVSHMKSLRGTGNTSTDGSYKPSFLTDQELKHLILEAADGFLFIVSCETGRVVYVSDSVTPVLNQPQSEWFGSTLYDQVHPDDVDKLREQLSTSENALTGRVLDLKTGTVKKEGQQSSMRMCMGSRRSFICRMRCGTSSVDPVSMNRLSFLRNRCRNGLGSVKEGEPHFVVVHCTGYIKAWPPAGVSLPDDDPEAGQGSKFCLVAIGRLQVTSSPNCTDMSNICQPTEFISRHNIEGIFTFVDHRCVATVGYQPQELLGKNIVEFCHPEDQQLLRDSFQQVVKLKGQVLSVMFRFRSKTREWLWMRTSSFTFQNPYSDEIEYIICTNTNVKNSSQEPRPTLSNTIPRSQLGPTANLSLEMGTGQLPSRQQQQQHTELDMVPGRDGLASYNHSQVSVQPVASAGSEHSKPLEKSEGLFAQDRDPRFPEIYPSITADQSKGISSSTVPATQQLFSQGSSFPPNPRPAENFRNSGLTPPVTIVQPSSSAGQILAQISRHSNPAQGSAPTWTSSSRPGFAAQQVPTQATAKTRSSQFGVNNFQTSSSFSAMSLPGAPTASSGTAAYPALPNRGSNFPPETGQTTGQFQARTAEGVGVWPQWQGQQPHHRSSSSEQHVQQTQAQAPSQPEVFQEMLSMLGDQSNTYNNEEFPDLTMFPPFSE
# Description: The reporter gene plasmid was transfected into mouse hepatoma Hepa1-6 cells by a conventional liposome transfection method in the art, and stably expressing cells were selected by puromycin for the mouse AHR agonist luciferase assay.
# On day one, the stably expressing reporter gene Hepa1-6 cell line was counted and seeded into a white opaque 96-well plate at a density of 1×10^4 cells per well −8×10^4 cells per well using 100 μL of phenol red-free Dulbecco's Modified Eagle Medium (DMEM) (DMEM without phenol red, 10% fetal bovine serum). The cells were cultured in an incubator maintained at 37° C. with 5% CO2 for 24 hours.
# Test compounds were prepared as 10 mM stock solutions in DMSO and stored at 4° C. protected from light. Before treatment, the compound stock solutions, positive control compounds (e.g., dioxin, ITE, or kynurenine), and a negative control compound (DMSO) were subjected to preliminary dilution (determined based on pre-experiments) with complete medium without tryptophan and phenol red, followed by 3- to 20-fold serial dilutions to 11 concentration points to obtain 10× dilution solutions. When treating the cells, 10 μL of medium was first aspirated from the 96-well plate containing the seeded cells, and then 10 μL of the serially diluted 10× dilution solution was added. Each compound was tested in duplicate, and each duplicate experiment included a well with a concentration of 0 (i.e., containing only medium) to determine the baseline. The reporter cells were returned to the incubator and incubated for 4 to 24 hours after treatment.
# After treatment, 100 μL/well of Nano-Glo Luciferase Assay Reagent was added to the 96-well plate, and the RLU of each well was measured. The RLU values for the wells with the concentration of 0 on the 96-well plates were averaged to calculate the baseline Ave RLU^Vehicle The activity of AHR induced by the test compounds at different concentrations was calculated according to Formula (1) based on the ratio of RLU^Test Cmpd from the experimental groups to the baseline Ave RLU^Vehicle, to determine the activation fold.
# The activation fold and the corresponding compound concentration were fitted using GraphPad Prism 9 with [Agonist] vs. response—variable slope (four parameters) to determine the EC50 of the compound for AHR activation.
# human AHR = molecular target: T2, human AHR (Homo sapiens, UniProt P35869); assay: Human AHR agonist luciferase assay (CYP1A1 promoter Nano-luc reporter in HepG2 cells);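 note: stably transfected HepG2 clone, DRE-containing 1200 bp promoter region driving Nano-luc, treated 4 to 24 h with 11-point dilutions in tryptophan-free medium, medium-only wells as baseline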
# T2 sequence (P35869 11-848): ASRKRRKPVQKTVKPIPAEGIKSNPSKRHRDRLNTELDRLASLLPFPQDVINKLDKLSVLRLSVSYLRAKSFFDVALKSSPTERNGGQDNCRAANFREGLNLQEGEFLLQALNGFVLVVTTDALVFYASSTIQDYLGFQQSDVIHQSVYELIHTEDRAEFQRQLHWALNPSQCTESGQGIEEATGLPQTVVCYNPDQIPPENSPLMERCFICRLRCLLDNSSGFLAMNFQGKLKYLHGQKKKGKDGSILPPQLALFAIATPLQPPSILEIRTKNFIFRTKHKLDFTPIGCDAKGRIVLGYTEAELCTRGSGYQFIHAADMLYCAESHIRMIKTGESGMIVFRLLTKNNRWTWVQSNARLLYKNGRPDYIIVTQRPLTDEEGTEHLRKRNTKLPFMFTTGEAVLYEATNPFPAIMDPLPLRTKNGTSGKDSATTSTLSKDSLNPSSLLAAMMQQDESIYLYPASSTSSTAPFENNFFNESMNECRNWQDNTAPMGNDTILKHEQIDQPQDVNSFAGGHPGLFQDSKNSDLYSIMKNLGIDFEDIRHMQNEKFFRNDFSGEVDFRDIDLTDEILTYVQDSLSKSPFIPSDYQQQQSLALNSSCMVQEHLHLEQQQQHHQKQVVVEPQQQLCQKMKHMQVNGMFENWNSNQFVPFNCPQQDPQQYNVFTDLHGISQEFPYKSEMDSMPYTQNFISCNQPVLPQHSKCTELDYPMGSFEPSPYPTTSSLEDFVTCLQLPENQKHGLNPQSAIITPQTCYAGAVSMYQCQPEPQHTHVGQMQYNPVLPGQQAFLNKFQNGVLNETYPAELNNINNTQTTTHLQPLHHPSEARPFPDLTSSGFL
# Description: To detect AHR activation, a reporter gene plasmid was constructed by placing the gene sequence from −1200 bp to 0 bp upstream of CYP1A1 in front of a Nano-luc luciferase reporter gene according to conventional construction methods of reporter gene plasmids in the art. The reporter gene plasmid was transfected into human hepatoma HepG2 cells by a conventional liposome transfection method in the art, and stably expressing cells were selected by puromycin. The selected cells were diluted to a concentration of 5 cells/mL and seeded into a 96-well plate at 100 μL/well, and single clones were obtained after growth. A single clone with normal morphology, normal growth, and the highest induction signal was selected for the human AHR agonist luciferase assay.
# On day one, the HepG2 monoclonal cell line stably expressing reporter gene was counted and seeded into a white opaque 96-well plate at a density of 1×10^4 cells per well −8×10^4 cells per well using 100 μL of complete medium without tryptophan and phenol red (minimal essential medium (MEM) without tryptophan and phenol red, 10% (v/v) fetal bovine serum, 1× non-essential amino acids, 1× sodium pyruvate, and 1× GlutaMax). The cells were cultured in an incubator maintained at 37° C. with 5% (v/v) CO2 for 24 hours.
# Test compounds were prepared as 10 mmol/L stock solutions in dimethyl sulfoxide (DMSO) and stored at 4° C. protected from light. Before treatment, the compound stock solutions, positive control compounds (e.g., dioxin, 2-(1H-indole-3-carbonyl)thiazole-4-carboxylic acid methyl ester (ITE), or kynurenine), and a negative control compound (DMSO) were subjected to preliminary dilution (determined based on pre-experiments) with the complete medium without tryptophan and phenol red, followed by 3- to 20-fold serial dilutions to 11 concentration points to obtain 2× dilution solutions. When treating the cells, 50 μL of medium was first aspirated from the 96-well plate containing the seeded cells, and then 50 μL of the serially diluted 2× dilution solution was added. Each compound was tested in duplicate, and each duplicate experiment included a well with a concentration of 0 (i.e., containing only the medium) to determine the baseline. The reporter cells were returned to the incubator and incubated for 4 to 24 hours after treatment.
# After treatment, 100 μL/well of Nano-Glo Luciferase Assay Reagent was added to the 96-well plate, and the relative light unit (RLU) of each well was measured. The RLU values for the wells with the concentration of 0 on the 96-well plates were averaged to calculate the baseline Ave RLU^Vehicle. The activity of AHR induced by the test compounds at different concentrations was calculated according to Formula (1) based on the ratio of RLU^Test Cmpd from the experimental groups to the baseline Ave RLU^Vehicle, to determine the activation fold.
# The activation fold and the corresponding compound concentration were fitted using GraphPad Prism 9 with [Agonist] vs. response—variable slope (four parameters) to calculate the EC50 of the compound for AHR activation.
SMILES,EC50 (rat AHR),EC50 (mouse AHR),EC50 (human AHR)
"O=C(c1nc(C2CCOC2=O)cs1)c1c[nH]c2ccccc12 (single isomer, unassigned) [Compound 1-isomer-A]",≤ 10 nM,< 100 nM,< 500 nM
O=C(c1nc(C2CCOC2=O)cs1)c1c[nH]c2cc(F)ccc12 (stereo not drawn) [Compound 1-2],≤ 10 nM,< 100 nM,< 500 nM
CN1CCC(c2csc(C(=O)c3c[nH]c4cc5c(cc34)OCO5)n2)C1=O (stereo not drawn) [Compound 7-6],2000 to 100000 nM,< 100 nM,< 500 nM
O=C(c1nc(C2(O)CCOC2=O)cs1)c1c[nH]c2cc(F)ccc12 (stereo not drawn) [Compound 2-2],≤ 10 nM,< 100 nM,< 500 nM

# Other lines, results leading:
EC50 (rat AHR),EC50 (mouse AHR),EC50 (human AHR),SMILES
≤ 10 nM,< 100 nM,< 500 nM,O=C(c1nc(C2(Cl)CCOC2=O)cs1)c1c[nH]c2ccccc12 (stereo not drawn) [Compound 4]
≤ 10 nM,< 100 nM,< 500 nM,O=C(c1nc(C2(Cl)CCOC2=O)cs1)c1c[nH]c2cc(F)ccc12 (stereo not drawn) [Compound 4-2]
≤ 10 nM,< 100 nM,< 500 nM,O=C(c1nc(C2CCOC2=O)cs1)c1c[nH]c2ccc(F)cc12 (stereo not drawn) [Compound 1-4]
10 to 2000 nM,100 to 2000 nM,< 500 nM,"COC(=O)c1csc(C(=O)c2c[nH]c3ccccc23)n1 [ITE, 2-(1H-indole-3-carbonyl)thiazole-4-carboxylic acid methyl ester, reference compound]"
